Entries after “also recorded” stand apart in the source; their conditions may differ. Where two headings read alike, the source gives them in different places.
Legend:
serum uric acid [1] = assay: Serum uric acid after systemic intraperitoneal administration in guinea pigs; assay type: in vivo
[2] = humans; originally studied for treating brain edema; cited from earlier work
gout = assay: Administration of DPOFA to subjects afflicted with or at risk of gout (Examples 3-6); assay type: in vivo, human
Description: An amount of compound DPOFA is administered to a human subject afflicted with gout. […] An amount of compound DPOFA in combination with allopurinol or febuxostat is administered to a subject afflicted with gout. […] An amount of compound DPOFA is administered to a subject with a history of gout flares or who is at risk for a gout flare. […] An amount of compound DPOFA in combination with allopurinol or febuxostat is administered to a subject with history of gout flares or who is at risk for a gout flare.

[3] = tested on: uric acid levels in the urine; assay: Uric acid levels in the urine of guinea pig; assay type: in vivo
Source text: The fluorenone DPOFA, (R)-(+)-(5,6-dichloro-2,3,9,9a-tetrahydro-3-oxo-9a-propyl-1H-fluoren-7-yl)oxy]acetic acid, was originally developed for trauma-induced brain damage.

serum uric acid [4] = details: cited from earlier work; for patients meeting target serum levels (serum uric acid): patients with at least one measurable tophus
serum urate = details: cited from earlier work
[5] = particularly in the 400 mg group

Question: What does the source list for `CCC[C@]12CCC(=O)C=C1c1c(cc(OCC(=O)O)c(Cl)c1Cl)C2` [DPOFA]?
Answer: reduction in the serum uric acid level (serum uric acid [1]; 20 mg intraperitoneally): pronounced reduction; also recorded: reduced uric acid levels in the blood; time point of maximum reduction of uric acid (serum uric acid [1]; following systemic administration of 20 mg): 7 h; crossing of the blood-brain barrier [2]: failed to cross the blood-brain barrier; serum uric acid levels in subject afflicted with gout (gout; human subject afflicted with gout, Example 3): reduces serum uric acid levels; treating gout, combination versus each compound alone (gout; in combination with allopurinol or febuxostat, Example 4): more effective in treating the gout than each compound administered alone; preventing gout, combination versus each compound alone (gout; in combination with allopurinol or febuxostat, Example 6): more effective in preventing the gout than each compound administered alone; prevention of gout flares (gout; subject with a history of gout flares or at risk, Example 5): effective to prevent gout flares; uric acid levels in the urine [3]: increases uric acid levels in the urine

Question: Which “patients meeting target serum levels (serum uric acid)” value (serum uric acid [4]; febuxostat alone) does the source give for `Cc1nc(-c2ccc(OCC(C)C)c(C#N)c2)sc1C(=O)O` [febuxostat] here?
Answer: The value was 46%.

Question: For `O=C(O)CSc1nnc(Br)n1-c1ccc(C2CC2)c2ccccc12` [lesinurad], which “improvement at six months (primary endpoint)” value (serum uric acid [4]; 200 mg dose) is on record?
Answer: The value was “failed to show a significant improvement”.

Question: What about the “proportion of subjects achieving a complete resolution of at least one tophus by month 12” value (serum uric acid [4]; combination with febuxostat) of the same compound?
Answer: Its value is “did not result in a significant difference”.

Question: What about the “patients meeting target serum levels (serum uric acid)” value (serum uric acid [4]; lesinurad 400 mg in combination with febuxostat) of the same compound?
Answer: Its value is 76%.

Question: And the “rate of renal-related AEs” value (serum uric acid [4]; [5])?
Answer: Its value is “higher rate of renal-related AEs”.

Question: And the serum creatinine levels (serum uric acid [4]; [5])?
Answer: Its serum creatinine levels is “rise in serum creatinine levels”.

Question: What does the source list for `CCCN(CCC)S(=O)(=O)c1ccc(C(=O)O)cc1` [probenecid]?
Answer: patients achieving target serum urate concentrations (<0.36 mmol/l) (serum urate; allopurinol combination treatment group, 10/27): 37%; adverse effects, share of subjects tested (serum urate; human, in vivo): 19%; patients achieving target serum urate concentrations (<0.36 mmol/l) (serum urate; probenecid monotherapy group, 10/30): 33%
